Measured values from patent publication US20250099414A1, “COMPOSITIONS AND METHODS FOR TREATING TRIPLE-NEGATIVE BREAST CANCER” (The Board of Regents of the University of Oklahoma, priority 2019, published 2025).
Entries after “also recorded” stand apart in the source; their conditions may differ. Read-outs that look alike come from different tables or passages of the source.

Assays:
EMT6 cells [1] = assay: ANXA5-VPA TNBC cytotoxicity (Alamar Blue), EMT6; assay type: cell-based, murine; conditions: 48 hours, VPA in the conjugate or free VPA, 10^−4 to 10 mM
Description: (§1) After confirming the conjugation of VPA to ANXA5, the cytotoxicity of the ANXA5-VPA conjugate was tested in two murine TNBC cell lines (EMT6 and 4T1). […] EMT6 and 4T1 cells were seeded at 5,000 cells/well in 96 well plates and treated 48 hours after seeding. Cells were treated with 10^−4 to 10 mM of VPA in the ANXA5-VPA conjugate or free VPA growth medium fully supplemented with 2 mM of calcium to promote ANXA5 binding. After 48 hours, cell viability was analyzed via a fluorescent Alamar Blue assay. Percent viability was determined by normalizing the control (0 mM VPA) to 100% and comparing each treatment group to the control (n=3).

4T1 cells = assay: ANXA5-VPA TNBC cytotoxicity (Alamar Blue), 4T1; assay type: cell-based, murine; conditions: 48 hours, VPA in the conjugate or free VPA, 10^−4 to 10 mM
Description: as §1

[2] = test system: murine TNBC cell lines (EMT6 and 4T1); assay: ANXA5-VPA TNBC cytotoxicity, statement on both lines together; assay type: cell-based; conditions: 48 hours
Description: as §1

[3] = test system: EMT6-strain TNBC cells with PS externalization; assay: ANXA5 colorimetric binding (modified indirect ELISA), EMT6; design: species or system murine; conditions: 0-20 nM biotinylated ANXA5; 2 mM Ca2+; read-out: dissociation constant of the specific binding
Description: (§2) Binding strength was analyzed via a modified indirect ELISA. Cells (50,000 cells/well) were grown onto 24 well plates and fixed with 0.025% glutaraldehyde once cancer cells were 70-80% confluent, or MCF10A noncancerous cells were 100% confluent. Cancer cells were blocked with 0.5% BSA for 1 h at 37° C. Cells were incubated with 0-20 nM of biotinylated ANXA5 for 2 h at 37° C. and 5% CO2. ANXA5 was biotinylated with a Roche biotin protein labeling kit (Roche, Basel, Switzerland), and the level of biotinylation was quantified with a Pierce Biotin Quantification kit (Pierce Biotechnology, Waltham, MA, USA) per manufacturer's instructions. Cells were washed four times with 0.5% BSA to remove unbound ANXA5. […] The supernatant was collected, and the absorbance was read at 450 nm on a BioTek Synergy HT microtiter plate reader (Winooski, VT). […] The dissociation constant was determined using the nonlinear regression one-site total and nonspecific binding model in GraphPad Prism version 9 software (Graph Pad, San Diego California, USA).
(§3) To confirm the ability of the ANXA5 to bind to PS on the surface of TNBC cells, equilibrium binding experiments with increasing concentrations of biotinylated ANXA5 were used. […] After subtracting out 0 nM ANXA5 background absorbance, the non-specific binding was essentially 0, meaning ANXA5 was not binding to the EMT6 and 4T1 cells when Ca^2+ was absent. […]

[4] = test system: 4T1-strain TNBC cells with PS externalization; assay: ANXA5 colorimetric binding (modified indirect ELISA), 4T1; design: species or system murine; conditions: 0-20 nM biotinylated ANXA5; 2 mM Ca2+; read-out: dissociation constant of the specific binding
Description: as §2, §3

[5] = test system: healthy MCF10A human breast cells; assay: ANXA5 colorimetric binding (modified indirect ELISA), MCF10A
Description: as §2, §3

[6] = cited from earlier work
EMT6 cells [7] = assay: ICD study: cytotoxicity (cell death) after 24 hours; assay type: cell-based, murine; conditions: 10 nM DM1
mouse EMT6 TNBC cells = conditions: for IC50: read-out: IC50, cell viability, 72 h, concentration of DM1 as free drug or in the conjugate, 2 mM calcium
healthy MCF10A cells = assay: ANXA5-DM1 and ANXA5 cell viability assay (AlamarBlue), healthy mammary cells; conditions: for IC50: read-out: IC50, cell viability, 72 h, 100% confluent cells
4T1 = assay: ANXA5-CMB TNBC cell cytotoxicity, 4T1; assay type: cell-based, murine; conditions: 24 hours
From the text: (§4) While the cytotoxic activity of the ANXA5-CMB conjugate is excellent against TNBC cells, the cytotoxicity of the conjugate must be tested against healthy vascular and mammary cells.

EMT6 = assay: ANXA5-CMB TNBC cell cytotoxicity, EMT6; assay type: cell-based, murine; conditions: 24 hours
From the text: as §4

murine TNBC cells = assay: ANXA5-CMB TNBC cell cytotoxicity, statements on both lines together; assay type: cell-based; conditions: at 1 μM
From the text: as §4

HUVEC cells = assay: ANXA5-CMB healthy cell cytotoxicity (resazurin), HUVEC; conditions: dose up to 100 μM CMB in the conjugate; 90-100% confluency; 2 mM calcium; 24 hours
Description: (§5) Cell viability was assayed by a resazurin assay (n=3-6). […] Cells were treated with 0-100 μM of CMB in the ANXA5-CMB conjugate in growth media fully supplemented with 2 mM calcium to promote ANXA5 binding. After 72 hours, an Alamar Blue assay was utilized to determine viability. Percent viability was determined by comparing treatment groups to the untreated control (0 μM).
(§6) Cells were treated with 0-100 μM CMB in the ANXA5-CMB conjugate in fully supplemented growth medium with 2 mM calcium. Cells were grown to 90-100% confluency. […] Cell viability was measured via an Alamar Blue assay and viability was compared to the control (0 μM) after 24 hours. Data is presented as mean±SD (n=4-8). Cells were treated with 0-100 μM CMB in the ANXA5-CMB conjugate in fully supplemented growth medium with 2 mM calcium. Cells were grown to 90-100% confluency. […] Cell viability was measured via an Alamar Blue assay and viability was compared to the control (μM) after 24 hours. Data is presented as mean±SD (n=4-8).

MCF10A cells = assay: ANXA5-CMB healthy cell cytotoxicity (resazurin), MCF10A; assay type: cell-based, human; conditions: 90-100% confluency; 2 mM calcium; 24 hours
Description: as §5, §6

EMT6 cells [8] = assay: Immunogenic cell death: ATP release (luminescence kit); assay type: cell-based, murine; conditions: 24 h
Description: To determine if ANXA5-DM1 induces ATP release from cells after treatment, an ATP luminescence kit (Molecular Probes, Eugene, OR, USA) was utilized according to the manufacturer's instructions. […] After 24 h, 10 μL of cell media was added to 90 μL of standard reaction solution in a white plate. Luminescence reading was obtained from the plate reader, and ATP concentration was calculated by comparing the luminescence reading to a standard curve.

EMT6 cells [9] = assay: Immunogenic cell death: calreticulin surface expression (flow cytometry); assay type: cell-based, murine; conditions: 10 nM DM1; 24 h
Description: To determine if ANXA5-DM1 induces calreticulin surface expression, flow cytometry was utilized. EMT6 and 4T1 cells were seeded at 25,000 cells/well in 24 well plates and treated 24 h after seeding. […] After 24 h, media was collected into microcentrifuge tubes to collect dead cells. To ensure there would be enough cells, three wells were combined to be one sample. Cells in the plates were then washed with PBS, and 100 μL of trypsin was added to each well. Once 90% of the cells were removed from the plate (2-5 min), cells were added to the microcentrifuge tubes and centrifuged at 500×g for 5 min. Cells were resuspended in 200 μL of 0.5% BSA-PBS and counted to have at least 100,000 cells per sample. Cells were then fixed with 4% paraformaldehyde (PFA, Thermo Fisher Scientific, Waltham MA, USA) for 20 min at 4° C. Cells were then washed two times with 500 μl of 0.5% BSA-PBS at 500×g for 5 minutes. […] After incubation, cells were analyzed on a BD Biosciences Accuri C6 flow cytometer (Franklin Lakes, New Jersey, USA) with excitation at 488 nm, and a 533/30 bandpass filter was used to capture 10,000 gated events per sample. Data was collected and analyzed with BD C6 Accuri software. One sample was composed of three wells, and each sample was analyzed three times. […]

[10] = read-out: IC50, cell viability, 72 h, concentration of DM1 as free drug or in the conjugate, 2 mM calcium

With ANXA5-VPA the IC50 (EMT6 cells [1]; read-out: IC50 concentration) was roughly 10 µM, the IC50 (4T1 cells; read-out: IC50 concentration) was roughly 10 µM and the “lowest dose with significantly increased cell death compared to the free drug control” value [2] was 97 nM.
In the case of “ANXA5: recombinant annexin A5 produced in E. coli; binds phosphatidylserine in a Ca2+-dependent manner”, the Kd [3] is reported as 0.00114 µM, the Kd [4] is reported as 0.00231 µM and the “dissociation constant (Kd)” value ([5]; cells grown to confluence) is reported as “not detectable”. For the same compound, the “specific binding of ANXA5 to the cells” value ([5]; total minus nonspecific binding) was “no specific binding; also recorded: no ANXA5-PS binding was observed”.
For CCCC(CCC)C(=O)O [VPA, Valproic acid], the IC50 concentration (EMT6 cells [1]) is given as “could not be obtained with a dose of up to 10 mM; also recorded: could not be calculated”, the IC50 concentration (4T1 cells) is given as “could not be obtained with a dose of up to 10 mM; also recorded: could not be calculated” and the IC50 ([6]; 72-96 hours, read-out: concentration required to achieve an IC50 value) is given as greater than 1000 µM. For the same compound, the “dose required to be effective in vitro” value ([6]; delivered alone, after 72 hours) was 1 to 10 mM.
In the case of COc1cc2cc(c1Cl)N(C)C(=O)C[C@H](OC(=O)[C@H](C)N(C)C(=O)CCS)[C@]1(C)O[C@H]1[C@H](C)[C@@H]1C[C@@](O)(NC(=O)O1)[C@H](OC)/C=C/C=C(\C)C2 [DM1, Mertansine, reference compound], the “cell death (cytotoxicity)” value (EMT6 cells [7]) is reported as “significantly increased cell death”, the IC50 (mouse 4T1 TNBC cells; [10]) is reported as 0.32 µM and the IC50 (mouse EMT6 TNBC cells) is reported as 0.028 µM. The IC50 (healthy MCF10A cells; concentration of DM1) was 0.16 µM.
O=C(O)CCCc1ccc(N(CCCl)CCCl)cc1 [CMB, Chlorambucil, reference compound] gave an IC50 (4T1; Mus musculus, 4T1) of 156 µM and an IC50 (EMT6; Mus musculus, EMT6) of 102 µM.
In the case of “ANXA5-CMB: chlorambucil linked to ANXA5 lysine residues via EDC crosslinking chemistry”, the IC50 (4T1) is reported as 2.7 µM, the “IC50 ratio (CMB / ANXA5-CMB)” value (4T1) is reported as 57 and the IC50 (EMT6) is reported as 0.42 µM. For the same compound, the “IC50 ratio (CMB / ANXA5-CMB)” value (EMT6) was 241, the cytotoxicity (murine TNBC cells) was 100% and the “effect on cell viability” value (HUVEC cells) was “did not impact viability”. It also gave an IC50 (MCF10A cells) of 6 µM.
In the case of “ANXA5-DM1: mertansine (DM1) linked to lysine residues of recombinant annexin A5 with the crosslinker sulfo-SMCC”, the ATP release (EMT6 cells [8]; 10 nM DM1, versus free DM1 or control) is reported as “significantly increased ATP release; also recorded: significant increase”, the “ATP released relative to free DM1” value (EMT6 cells [8]; 10 nM) is reported as roughly 10 times and the “calreticulin surface expression (median fluorescent intensity)” value (EMT6 cells [9]) is reported as “significantly increased calreticulin surface expression; also recorded: significant increase”. The “cell death (cytotoxicity)” value (EMT6 cells [7]) was “significantly increased cell death”, the “potency (IC50) relative to free DM1” value (mouse 4T1 TNBC cells; 72 h viability assay) was “more than 2 orders of magnitude” and the IC50 (mouse 4T1 TNBC cells; [10]) was 0.00085 µM. The IC50 (mouse 4T1 TNBC cells; read-out: equivalent IC50 based on the ANXA5 concentration, assuming 4 moles DM1 per mole ANXA5, from 0.85 nM DM1) was 0.00021 µM, the “potency (IC50) relative to free DM1” value (mouse EMT6 TNBC cells; 72 h viability assay) was “more than 2 orders of magnitude” and the IC50 (mouse EMT6 TNBC cells) was 0.00021 µM. The “cytotoxicity to healthy breast cells” value (healthy MCF10A cells; 100% confluence, compared with free DM1, doses up to 48 μM) was “significantly less cytotoxic; also recorded: does not have cytotoxic effects”, the IC50 (healthy MCF10A cells; concentration of DM1) was greater than 5 µM and the IC50 (healthy MCF10A cells; doses up to 48 μM) was greater than 48 µM.
